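Five concentrations, 48 hours, 96-well plates. GI50 = concentration required for 50% inhibition of growth. TGI is the concentration that stops growth completely.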
Tests used:
Assay in all cases: inhibition of tumour cell growth, NCI panel, 48 h
[1] = system: SK-MEL-5 melanoma
[2] = system: EKVX NSCLC
[3] = system: OVCAR-4 ovarian
[4] = system: HL-60(TB) leukemia
[5] = system: ACHN renal
[6] = system: UACC-257 melanoma
[7] = system: OVCAR-8 ovarian
[8] = system: 786-0 renal
[9] = system: SN12C renal
[10] = system: SF-539 CNS

SMILES | GI50 [1] | TGI [1] | GI50 [2] | TGI [2] | GI50 [3] | TGI [3] | GI50 [4] | TGI [4] | GI50 [5] | TGI [5] | GI50 [6] | TGI [6] | GI50 [7] | TGI [7] | GI50 [8] | TGI [8] | GI50 [9] | TGI [9] | TGI [10] | GI50 [10]
COc1ccc2cc(C(=O)/C=C/c3ccco3)ccc2c1 | 12.2 µM | 31.1 µM | 6.33 µM | 26.2 µM | 64.3 µM | > 100 µM | 24.6 µM | 83.3 µM | 29.4 µM | 79.1 µM | 26.1 µM | 59.6 µM | 34.2 µM | > 100 µM | 10.4 µM | > 100 µM | 31.3 µM | > 100 µM |  | 
Cc1cc2c(=O)c3ccccc3oc2c(C#N)c1C |  | > 100 µM |  | > 100 µM |  | > 100 µM |  | > 100 µM |  | > 100 µM |  | > 100 µM |  | > 100 µM |  | > 100 µM |  |  |  | 
O=C(O)C1CCCCC1C(=O)Nc1nc2ccccc2[nH]1 (stereo not given) |  | > 100 µM |  | > 100 µM |  | > 100 µM |  |  |  | > 100 µM |  | > 100 µM |  | > 100 µM |  | > 100 µM |  | > 100 µM | > 100 µM | 
COc1ccc(C(=O)c2cc(OC)c(OC)c(OC)c2)cc1/C=C/C(=O)c1ccc2c(c1)OCO2 |  |  |  |  | 5.05 µM | > 100 µM | 2.16 µM | > 100 µM |  |  | 3.55 µM | > 100 µM | 2.32 µM | 13.1 µM | 2.28 µM | 5.84 µM | 3.07 µM | > 100 µM |  | 
Cc1ccc(C(O)/C(=N/N)c2nc3ccc([N+](=O)[O-])cc3[nH]c2=O)cc1 (stereo not given) |  | > 100 µM |  |  |  | > 100 µM |  | > 100 µM |  | > 100 µM |  | > 100 µM |  | > 100 µM |  | > 100 µM |  | > 100 µM |  | 
CNc1ccc(C(=O)CC(O)CCC(C)C2OC(=O)CC(O)CC(=O)CC(O)CC(O)CC(O)CC(O)CC3(O)CC(O)C(C(=O)NCCc4ccccn4)C(CC(OC4OC(C)C(O)C(N)C4O)/C=C/C=C/C=C/C=C\C=C/C=C/C=C/C2C)O3)cc1 (stereo not given) | 0.157 µM | 0.447 µM | 0.134 µM | 0.49 µM | 0.868 µM | > 50 µM | 5.01 µM | 30.2 µM | 0.841 µM | 1.53 µM |  |  | 0.747 µM |  | 0.118 µM | 0.361 µM | 0.961 µM | 2.09 µM | > 50 µM | 2.73 µM
O=C(Nc1cccc(-n2cc(-c3ccncc3)c(-c3ccc(O)c(Cl)c3)n2)c1)c1ccc(N2CCOCC2)c(C(F)(F)F)c1 | 1.75 µM | > 50 µM |  |  | > 50 µM | > 50 µM | 1.2 µM | 3.15 µM | 2.18 µM | > 50 µM | > 50 µM | > 50 µM | 2.24 µM | > 50 µM | 0.982 µM | > 50 µM | > 50 µM | > 50 µM | > 50 µM | 1.04 µM
COc1cccc(N2C(=O)[C@H]3[C@H]4CC(C(C)(C)C)CC[C@H]4c4c([nH]c5ccccc45)[C@H]3C2=O)c1 (stereo not given in full) |  | 35.6 µM |  | 40.6 µM |  |  |  | > 100 µM |  |  |  | 48.6 µM |  | 29.7 µM |  | 30.1 µM |  | 26.5 µM | 42.1 µM | 
C[C@]12CC/C(=N\OC(=O)Nc3ccccc3)C=C1CC[C@@H]1C2CC[C@@]2(C)C1CC[C@@H]2OC(=O)Nc1ccccc1 (stereo not given in full) |  | > 100 µM |  | > 100 µM |  | > 100 µM |  | > 100 µM |  | > 100 µM |  |  |  | > 100 µM |  | > 100 µM |  | 30.8 µM | > 100 µM | 
COC(=O)c1cc(NC(=O)CN(CCN(CC(=O)O)CC(=O)Nc2ccc(O)c(C(=O)OC)c2)CC(=O)O)ccc1O | 47.2 µM | > 100 µM | > 100 µM | > 100 µM | > 100 µM | > 100 µM | 42.2 µM | > 100 µM | 36.7 µM | > 100 µM |  |  | 77.3 µM | > 100 µM | 35.2 µM | > 100 µM | 63.8 µM | > 100 µM | > 100 µM | 29.4 µM
[O]=[W](=[O])([OH])[OH] | > 100 µM | > 100 µM |  |  | > 100 µM | > 100 µM | > 100 µM | > 100 µM | > 100 µM | > 100 µM | > 100 µM | > 100 µM | > 100 µM | > 100 µM | > 100 µM | > 100 µM | > 100 µM | > 100 µM | > 100 µM | > 100 µM
COC(=O)C1=C(C)N(NC(=O)c2cccc(Cl)c2)C(C)(O)C12CCOC2=O (stereo not given) |  | > 100 µM |  | > 100 µM |  | > 100 µM |  |  |  | > 100 µM |  | > 100 µM |  | > 100 µM |  | > 100 µM |  | > 100 µM | > 100 µM | 
NC(=O)OCC(COc1ccc(Cl)cc1)OC(=O)c1cc([N+](=O)[O-])cc([N+](=O)[O-])c1 (stereo not given) |  | > 100 µM |  | > 100 µM |  |  |  | > 100 µM |  | > 100 µM |  | > 100 µM |  | > 100 µM |  | > 100 µM |  | > 100 µM | > 100 µM | 
O=C(NCCCCCCNC(=O)NC1OCC(O)C(O)C1O)NC1OCC(O)C(O)C1O (stereo not given) |  | > 100 µM |  | > 100 µM |  | > 100 µM |  | > 100 µM |  | > 100 µM |  |  |  | > 100 µM |  | > 100 µM |  | > 100 µM | > 100 µM | 
O=C1c2ccccc2CCC1(Br)Br | 2.32 µM | 5.87 µM |  |  | 1.48 µM | 2.97 µM | 2.04 µM | 5.22 µM | 1.21 µM | 2.55 µM | 1.88 µM | 4.98 µM | 2.36 µM | 6.04 µM | 2.21 µM | 4.55 µM | 2.18 µM | 5.37 µM | 3.74 µM | 1.88 µM
N#C/C(=C\c1ccc([N+](=O)[O-])s1)c1nc2cc(Br)ccc2s1 | 0.167 µM | 0.311 µM | 0.246 µM | 1.1 µM |  |  | 3.82 µM | > 100 µM |  |  |  |  | 0.246 µM | 0.805 µM | 2.68 µM | > 100 µM | 0.201 µM | 0.576 µM | 0.638 µM | 0.236 µM
CS(=O)(=O)N(CC(=O)O)Cc1ccccc1 |  | > 100 µM |  | > 100 µM |  | > 100 µM |  |  |  | > 100 µM |  | > 100 µM |  | > 100 µM |  | > 100 µM |  | > 100 µM | > 100 µM | 
N#CC(C(=O)C(=O)Nc1ccc(Cl)c(Cl)c1)c1ccc(Cl)cc1 (stereo not given) |  | > 100 µM |  | > 100 µM |  |  |  | > 100 µM |  | > 100 µM |  | > 100 µM |  | > 100 µM |  | > 100 µM |  | > 100 µM | > 100 µM | 
